From article PMC7274485, “A symbiotic bacterium of shipworms produces a compound with broad spectrum anti-apicomplexan activity” (PLoS Pathogens, 2020) come the findings set out here.

The EC50 is the concentration giving half of the maximal effect.

“Also recorded” adds a separate entry of the source. Read-outs that look alike come from different tables or passages of the source.

Data set [1] in a line: Pilot pharmacokinetic study in lambs. In kind it is in vivo. An excerpt: A full PK/PD study of trtE in mice and lambs has recently been funded, so in the near future we will be able to answer these questions.
The subject of data set [2] is extracellular T. gondii tachyzoites. The data set can be described thus: Extracellular T. gondii tachyzoites treated 2 hours, washed, then infection of HFF quantified by luciferase. In kind it is cell-based, Toxoplasma gondii. How it is done: Because we had tested the compound against intracellular parasites, it was unclear if trtE was exerting a direct effect on the parasites, or if trtE acted indirectly on the parasites by modulating host cell pathways. […] Growth of the parasites was measured 24 hours later by luciferase expression.
To determine the direct effect of trtE on T. gondii, RH GFP/Luc tachyzoites that had exited from host cells were combined with trtE at varying concentrations and incubated at 37°C and 5% CO2 for 2 hours. Tachyzoites in 0.01% DMSO were run in parallel. The parasites were washed to remove compound and added to 96-well plates containing confluent HFFs. Growth was monitored 24 hours later using Bright-glo Luciferase assay system (Promega). Percent inhibition was calculated as ((luciferase reading DMSO treated parasites—luciferase reading of trtE treated parasites)/ luciferase reading DMSO treated parasites)*100.

The test system of the next data set is Babesia bovis. As to the kind of experiment: B. bovis-infected erythrocyte proliferation, SYBR green incorporation. The class given is cell-based. Conditions: in Bos taurus, infected erythrocytes, 72 hours, read-out: EC50 against B. bovis. The procedure: B. bovis and B. bigemina inhibitor response assays were adapted from components of [79–81]. B. bovis and B. bigemina parasites were maintained in bovine erythrocytes under microaerophilic stationary phase conditions in vitro as described elsewhere. Prior to use in growth studies parasites were grown in erythrocytes from which leukocytes were depleted. Cultures were set up at 0.20% parasitized erythrocytes, in quadruplicate, in complete medium supplemented with trtE. Final concentration of DMSO in all cultures was 1%, and was consistent throughout. Following 72h growth under 90% nitrogen, 5% oxygen, 5% carbon dioxide cells were harvested by thorough resuspension, and transferred to a black, opaque 96-well plate. Cells were freeze-thawed at -80°C overnight, then mixed with an equal volume of SYBR Green lysis buffer. Lysis buffer was composed of 20 mM Tris, pH 7.5, 5 mM EDTA, 0.008% (w/v) saponin, 0.08% (v/v) NP40, and contained 0.2 μl 10,000x SYBR Green I dye ml^-1 (S7563; Invitrogen; Carlsbad, CA). Plates were incubated for one hour at room temperature in the dark prior to reading in a microplate reader, at 485 nm excitation and 528 nm emission wavelengths.

For the next data set, the system named is C. parvum. As to the kind of experiment: Immunofluorescence assay (anti-gp15) of C. parvum-infected HCT8 cells. In kind it is cell-based, Cryptosporidium parvum. As to conditions: 60 nM trtE, 12 hours, HCT8 cells infected 8 hours. The procedure: We had postulated that secondary metabolites generated by symbiotic bacteria of invertebrates might include compounds that target gregarines, an ancient group of apicomplexans found in most, and perhaps all, invertebrates. The only gregarines known to infect mammals are Cryptosporidium species, gastrointestinal parasites that cause diarrheal disease in humans and other mammals. HCT8 cells were infected with luciferase-expressing Cryptosporidium parvum parasites for 24 hours, then two-fold dilutions of trtE added to the infected cells. 48 hours after the addition of trtE, parasite growth was quantified by luciferase expression. […]
For all IFAs, the investigator reading the slides and collecting images was blind to the sample treatment. […] 24 hours post treatment, infected cells were fixed with methanol, and parasites detected with rabbit anti-SAG1 antibody for T. gondii or rabbit anti-gp15 for C. parvum as we have described previously. […] This CE11 line is transiently transfected with a plasmid that expresses nanoluciferase from a B. divergens promoter and green fluorescence protein-blasticidin (gfp-bsd) from the selection cassette. […] Mean background levels were determined for individual images by assaying areas lacking cells, and the values were subtracted, whereas maximum fluorescent values were individually set as the upper limit. […]

The subject of another data set is Theileria equi. The data set can be described thus: Theileria equi 72 hr in vitro parasite growth inhibition assay. The class given is cell-based. How it is done: The effect of trtE on proliferation of T. equi was evaluated in a 72 hr in vitro parasite growth inhibition assay performed as previously described using the USDA Florida strain of T. equi.
A. Bovine turbinate cells infected with luciferase expressing Sarcocystis neurona merozoites were treated with trtE for 24 hours and parasite growth evaluated by luciferase expression. […] B. Theileria equi-infected erythrocytes were incubated with trtE or DMSO vehicle control and proliferation was measured after 72 hours by SYBR green incorporation. Percent proliferation was calculated relative to DMSO treated controls. […] (DOCX) Click here for additional data file.

For data set [3], the system named is Toxoplasma gondii bradyzoites. As to the kind of experiment: Very preliminary study against T. gondii bradyzoites. Conditions: close to the level of toxicity for the host cells. The class given is cell-based.

Take `CC1CCC=CC=CCCC(O)CC(=O)CC2CCC(C)C3(O2)O[B-]24OC(C(=O)O1)C1(OC(CCC1C)CC(=O)CC(O)CCC=CC=CCCC(C)OC(=O)C3O2)O4` (stereo not drawn) [trtE, tartrolon E]: the “Absorption from the intestine” value in data set [1] (in vivo) is reported as “rapidly absorbed from the intestine”. In addition, the Tolerability in lambs result in data set [1] (pilot study, lambs) was “tolerated by the animals”. The EC50 in data set [2] (Toxoplasma gondii, RH strain tachyzoites treated 2 hours, washed, growth in HFF after 24 hours, read-out: EC50 against extracellular T. gondii tachyzoites) was determined as 3.1 nM; in the data set on Babesia bovis, 15.9 nM; with Theileria equi (Erythrocyte, infected erythrocytes, 72 hours, read-out: EC50 against T. equi), 0.391 nM; in the data set with Theileria equi (Table 1, rounded, read-out: EC50 against T. equi (Table 1)), 0.4 nM. Further, in data set [2] (addition of excess K+ ions, no positive control), the “Effect of excess K+ ions on trtE activity against extracellular tachyzoites” value is on record as “had no effect”. Further, the “Morphology of trtE treated C. parvum (IFA)” value with C. parvum is recorded as “no visible intact merozoites; also recorded: few discernable parasites”. Besides, the “Concentration at which trtE was effective against bradyzoites” value in data set [3] is recorded as ~ 1 µM.
